# Data as given in paper PMC9281440, “In Vivo Distribution and Therapeutic Efficacy of Radioiodine-Labeled pH-Low Insertion Peptide Variant 3 in a Mouse Model of Breast Cancer” (Molecular Imaging, 2022).
# Where two headings read alike, the source gives them in different places. Peptide text beside a SMILES is read from it.
# What was measured:
# [1] = Micro-SPECT/CT imaging and distribution of 125I-labeled pHLIPs; format: in vivo; conditions: female, mouse, total radioactivity, 4T1 tumor-bearing nude mice, 3.7 MBq iv, micro-SPECT/CT ROI, mean ± SD, n = 4; for tissue uptake at 4 h: 4 h pi; for tissue uptake at 24 h: 24 h pi; for tissue uptake at 48 h: 48 h pi; for tissue uptake at 1 h: 1 h pi; for tissue uptake at 2 h: 2 h pi
# Protocol: Five-week-old female athymic BALB/c nude mice (Shanghai Slaccas Experiment Animal Corp., Shanghai, China) were used in our study. Mouse xenograft models of MDA-MB-231, 4T1, and SK-BR-3 cells were produced by the subcutaneous injection of 5 × 10^6 cells (suspended in 150 μL PBS) into the right axilla of each mouse. The mice were used in subsequent experiments when tumor diameter reached 0.5-0.9 cm. The study protocol was approved by the institutional review board and by the Experimental Animal Center of Ruijin Hospital affiliated to the School of Medicine of Shanghai Jiao Tong University.
# Three days before micro-SPECT/CT imaging, 300 μL of 1% Kl solution was administered to mice by oral gavage once a day, and 0.1% Kl was added into the drinking water to block thyroid gland activity. Mice-bearing MDA-MB-231, 4T1, or SK-BR-3 tumors were intravenously injected with 3.7 MBq of ^125I-WT-pHLIP or ^125I-Var3-pHLIP. Each group contained four mice. The mice were anesthetized by isoflurane inhalation, placed in the prone position, and scanned using a four-head SPECT/CT system (U-SPECT/CT, MI-Lab, Netherlands) and dedicated multipinhole apertures with a diameter of 1.5 mm at 1, 2, 4, 24, and 48 h after injection of ^125I-labeled peptides. CT images were acquired after static SPECT imaging (10 min/frame). The images were reconstructed using U-SPECT REC software and analyzed using PMOD software version 3.9 (Switzerland). Regions of interest (ROIs) were drawn in the tumors and organs, including the brain, heart, liver, lungs, kidneys, intestine, and bladder, at various time points. The radioactivity per gram (ID%/g) in the ROIs was measured to obtain the dynamic tumor-to-background ratio (TBR, muscle tissue was used as the background) and the in vivo distribution and kinetics of ^125I-WT-pHLIP and ^125I-Var3-pHLIP in the xenograft models of BC.
# [2] = In vitro stability of radiolabeled peptides in PBS at room temperature; format: physicochemical; conditions: room temperature (25°C), PBS buffer, radiochemical purity, thin-layer chromatography
# Protocol: WT-pHLIP and Var3-pHLIP were labeled with ^125I for in vivo imaging experiments, and Var3-pHLIP was labeled with ^131I for therapeutic efficacy experiments. Radioactive iodine binds to tyrosine residues in pHLIPs. Peptides were dissolved in 200 μL of 0.02 M PBS (pH 7.4) to reach a concentration of 1 mg/mL and mixed with 10 μL of Na^125I (74 MBq) or 20 μL of Na^131I (925 MBq). Chloramine-T (20 μL, 5 mg/mL) was added to the test tubes and mixed for 70 s at room temperature. The reaction was stopped by adding 200 μL of sodium metabisulfite (5 mg/mL). The peptides were eluted in ethanol through a C18 column equilibrated with 20 mL of 100% ethanol and 20 mL of distilled water. The radioactive purity of ^125I-WT-pHLIP, ^125I-Var3-pHLIP, and ^131I-Var3-pHLIP was determined using thin-layer chromatography. Furthermore, the radiochemical purity of ^125I-WT-pHLIP, ^125I-Var3-pHLIP, and ^131I-Var3-pHLIP was measured, and chemical stability was determined at 24 and 48 h at room temperature (25°C) in PBS and at 37°C in serum.
# [3] = BALB/c nude, read-out: Distribution, Tumor
# [4] = athymic BALB/c nude, bladder, read-out: Distribution, Bladder
# [5] = athymic BALB/c nude, brain, read-out: Distribution, Brain
# [6] = athymic BALB/c nude, heart, read-out: Distribution, Heart
# [7] = athymic BALB/c nude, intestine, read-out: Distribution, Intestine
# [8] = athymic BALB/c nude, kidney, read-out: Distribution, Kidney
# [9] = athymic BALB/c nude, liver, read-out: Distribution, Liver
# [10] = athymic BALB/c nude, lung, read-out: Distribution, Lung
# [11] = athymic BALB/c nude, muscle, read-out: Distribution, Muscle
structure (smiles),measurement,setting,value
CC(C)C[C@H](NC(=O)[C@H](Cc1ccc(O)c(I)c1)NC(=O)[C@H](C)NC(=O)[C@H](CCCNC(=N)N)NC(=O)[C@H](Cc1c[nH]c2ccccc12)NC(=O)[C@@H]1CCCN1C(=O)[C@H](CC(N)=O)NC(=O)[C@H](CCC(N)=O)NC(=O)[C@H](CC(=O)O)NC(=O)[C@H](CC(=O)O)NC(=O)[C@H](CS)NC(=O)[C@H](C)N)C(=O)N[C@@H](CC(=O)O)C(=O)N[C@@H](CC(C)C)C(=O)N[C@@H](CC(C)C)C(=O)N[C@@H](Cc1ccccc1)C(=O)N1CCC[C@H]1C(=O)N[C@H](C(=O)N[C@@H](CC(=O)O)C(=O)N[C@H](C(=O)N[C@@H](CC(C)C)C(=O)N[C@@H](CC(C)C)C(=O)N[C@@H](CC(C)C)C(=O)N[C@@H](CC(=O)O)C(=O)N[C@@H](CC(C)C)C(=O)N[C@@H](CC(C)C)C(=O)N[C@@H](Cc1c[nH]c2ccccc12)C(=O)N[C@@H](CCCCN)C(=O)O)[C@@H](C)O)[C@@H](C)O [125I-Var3-pHLIP] (HELM PEPTIDE1{A.C.D.D.Q.N.P.W.R.A.[O=C([C@H](Cc1ccc(O)c(I)c1)N[*:1])[*:2]].L.D.L.L.F.P.T.D.T.L.L.L.D.L.L.W.K}$$$$V2.0; N-terminus and C-terminus assumed),tissue uptake at 4 h,[1]; [3],3.4 ± 0.73 %ID/g
same,tissue uptake at 24 h,[1]; [3],0.21 ± 0.07 %ID/g
same,tissue uptake at 48 h,[1]; [3],0.12 ± 0.04 %ID/g
same,tissue uptake at 1 h,[1]; [4],33.7 ± 21.1 %ID/g
same,tissue uptake at 2 h,[1]; [4],24.9 ± 10.8 %ID/g
same,tissue uptake at 4 h,[1]; [4],42.7 ± 17.6 %ID/g
same,tissue uptake at 24 h,[1]; [4],2.83 ± 1.65 %ID/g
same,tissue uptake at 48 h,[1]; [4],0.21 ± 0.13 %ID/g
same,tissue uptake at 1 h,[1]; [5],1.44 ± 0.24 %ID/g
same,tissue uptake at 2 h,[1]; [5],1.32 ± 0.49 %ID/g
same,tissue uptake at 4 h,[1]; [5],1.04 ± 0.47 %ID/g
same,tissue uptake at 24 h,[1]; [5],0.16 ± 0.1 %ID/g
same,tissue uptake at 48 h,[1]; [5],0.13 ± 0.09 %ID/g
same,tissue uptake at 1 h,[1]; [6],14.4 ± 2.44 %ID/g
same,tissue uptake at 2 h,[1]; [6],11 ± 2.39 %ID/g
same,tissue uptake at 4 h,[1]; [6],8.21 ± 2.03 %ID/g
same,tissue uptake at 24 h,[1]; [6],0.36 ± 0.16 %ID/g
same,tissue uptake at 48 h,[1]; [6],0.17 ± 0.05 %ID/g
same,tissue uptake at 1 h,[1]; [7],3.65 ± 0.64 %ID/g
same,tissue uptake at 2 h,[1]; [7],3.63 ± 1.19 %ID/g
same,tissue uptake at 4 h,[1]; [7],3.23 ± 0.7 %ID/g
same,tissue uptake at 24 h,[1]; [7],0.28 ± 0.15 %ID/g
same,tissue uptake at 48 h,[1]; [7],0.14 ± 0.11 %ID/g
same,tissue uptake at 1 h,[1]; [8],7.98 ± 3.12 %ID/g
same,tissue uptake at 2 h,[1]; [8],7.97 ± 2.23 %ID/g
same,tissue uptake at 4 h,[1]; [8],4.99 ± 2.04 %ID/g
same,tissue uptake at 24 h,[1]; [8],0.39 ± 0.3 %ID/g
same,tissue uptake at 48 h,[1]; [8],0.2 ± 0.13 %ID/g
same,tissue uptake at 1 h,[1]; [9],14.9 ± 3.55 %ID/g
same,tissue uptake at 2 h,[1]; [9],13.2 ± 2.28 %ID/g
same,tissue uptake at 4 h,[1]; [9],12.6 ± 3.61 %ID/g
same,tissue uptake at 24 h,[1]; [9],0.6 ± 0.16 %ID/g
same,tissue uptake at 48 h,[1]; [9],0.23 ± 0.04 %ID/g
same,tissue uptake at 1 h,[1]; [10],13.8 ± 3.09 %ID/g
same,tissue uptake at 2 h,[1]; [10],11.3 ± 3.09 %ID/g
same,tissue uptake at 4 h,[1]; [10],9.4 ± 2.45 %ID/g
same,tissue uptake at 24 h,[1]; [10],0.48 ± 0.15 %ID/g
same,tissue uptake at 48 h,[1]; [10],0.19 ± 0.1 %ID/g
same,tissue uptake at 1 h,[1]; [11],1.41 ± 0.61 %ID/g
same,tissue uptake at 2 h,[1]; [11],1.03 ± 0.19 %ID/g
same,tissue uptake at 4 h,[1]; [11],0.8 ± 0.26 %ID/g
same,tissue uptake at 24 h,[1]; [11],0.06 ± 0.04 %ID/g
same,tissue uptake at 48 h,[1]; [11],0.03 ± 0.03 %ID/g
same,tissue uptake at 1 h,"[1]; athymic BALB/c nude, read-out: Distribution, Tumor",4.26 ± 1.24 %ID/g
same,stability,[2]; 24 h,> 95%
same,stability,[2]; 48 h,> 90%
